From patent US9718792B2, “Isoxazoline hydroxamic acid derivatives as LpxC inhibitors” (priority 2014, dated 2017)
Values after ≈ are worked out from the molar mass of the structure shown.

Columns and labels:
P. aeruginosa LpxC = P. aeruginosa LpxC (Pseudomonas aeruginosa (strain ATCC 15692 / DSM 22644 / CIP 104116 / JCM 14847 / LMG 12228 / 1C / PRS 101 / PAO1), UniProt P47205); assay: P. aeruginosa LpxC Inhibition Assay; assay type: biochemical; details: 1 nM P. aeruginosa LpxC, 2 μM substrate, LC-MS/MS; read-out: PA LpxC IC50
Procedure, shortened: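 Compounds pre-incubated 30 min at room temperature with 1 nM LpxC, then 2 μM UDP-3-O-(R-3-hydroxydecanoyl)-GlcNAc added; 20 min reaction in 50 mM sodium phosphate pH 7.5, 0.005% Triton X-100, quenched with HOAc. Product quantified by LC-MS/MS against calibration curve; IC50 from four-parameter logistic fit.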

P. aeruginosa PAO1 = assay: Susceptibility Testing (MIC, broth microdilution); assay type: cell-based, Pseudomonas aeruginosa; details: Pseudomonas aeruginosa, PAO1, 20 h, P. aeruginosa PAO1, broth microdilution, 20 hours; read-out: PAO1 MIC
Procedure, shortened: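 Broth microdilution per CLSI in cation-adjusted Mueller-Hinton broth, inoculum ~5×10^5 CFU/mL, two-fold compound dilutions (1% DMSO final). Plates incubated 20 h in ambient air at 35° C. MIC is the lowest concentration preventing visible growth, confirmed by OD 600 nm reading.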

| Structure (SMILES) | IC50 (P. aeruginosa LpxC) | MIC (P. aeruginosa PAO1) |
| --- | --- | --- |
| CC(C)(O)c1ccc(-c2ccc(C3=NO[C@@H](C[C@](C)(C(=O)NO)S(C)(=O)=O)C3)cc2)cn1 [Compound 84, (R)—N-hydroxy-3-((R)-3-(4-(6-(2-hydroxypropan-2-yl)pyridin-3-yl)phenyl)-4,5-dihydroisoxazol-5-yl)-2-methyl-2-(methylsulfonyl)propanamide] | < 0.5 nM | 1 µg/mL (≈ 2.17 µM) |
| C[C@@](C[C@H]1CC(c2ccc(-c3cccc(CO)c3)cc2)=NO1)(C(=O)NO)S(C)(=O)=O [Compound 57, (R)—N-hydroxy-3-((R)-3-(3′-(hydroxymethyl)-[1,1′-biphenyl]-4-yl)-4,5-dihydroisoxazol-5-yl)-2-methyl-2-(methylsulfonyl)] | < 0.5 nM | 1 µg/mL (≈ 2.31 µM) |
| CCSc1ccc(C2=NO[C@@H](C[C@](C)(C(=O)NO)S(C)(=O)=O)C2)cc1 [Compound 32, (R)-3-((R)-3-(4-(ethylthio)phenyl)-4,5-dihydroisoxazol-5-yl)-N-hydroxy-2-methyl-2-(methylsulfonyl)propanamide] | 0.9 nM | 0.4 µg/mL (≈ 1.03 µM) |
| C[C@@](C[C@H]1CC(c2ccc(-c3ccc(S(C)(=O)=O)cc3)cc2)=NO1)(C(=O)NO)S(C)(=O)=O [Compound 58, (R)—N-hydroxy-2-methyl-2-(methylsulfonyl)-3-((R)-3-(4′-(methylsulfonyl)-[1,1-biphenyl]-4-yl)-4,5-dihydroisoxazol-5-yl)] | < 0.5 nM | 0.5 µg/mL (≈ 1.04 µM) |
| Cc1cc(CO)ccc1-c1ccc(C2=NO[C@@H](C[C@](C)(C(=O)NO)S(C)(=O)=O)C2)cc1 [Compound 87, (R)—N-hydroxy-3-((R)-3-(4′-(hydroxymethyl)-2′-methyl-[1,1′-biphenyl]-4-yl)-4,5-dihydroisoxazol-5-yl)-2-methyl-2-(methylsulfonyl)propanamide] | < 0.5 nM | 0.25 µg/mL (≈ 0.56 µM) |
| CC#Cc1ccc(C2=NO[C@@H](C[C@](C)(C(=O)NO)S(C)(=O)=O)C2)cc1 [Compound 2-A, (R)—N-hydroxy-2-methyl-2-(methylsulfonyl)-3-((R)-3-(4-(prop-1-yn-1-yl)phenyl)-4,5-dihydroisoxazol-5-yl)propanamide] | 0.8 nM | 0.25 µg/mL (≈ 0.686 µM) |
| CC#Cc1ccc(C2=NO[C@@H](C[C@](C)(C(=O)NO)S(C)(=O)=O)C2)c(F)c1 [Compound 123, (R)-3-((R)-3-(2-fluoro-4-(prop-1-yn-1-yl)phenyl)-4,5-dihydroisoxazol-5-yl)-N-hydroxy-2-methyl-2-(methylsulfonyl)propanamide] | < 0.5 nM | 0.25 µg/mL (≈ 0.654 µM) |
| C[C@@](C[C@H]1CC(c2ccc(-c3c(F)cncc3F)cc2)=NO1)(C(=O)NO)S(C)(=O)=O [Compound 100] | < 0.5 nM | 0.25 µg/mL (≈ 0.569 µM) |
| C[C@@](C[C@H]1CC(c2ccc(-c3ccc(S(C)(=N)=O)cc3)cc2)=NO1)(C(=O)NO)S(C)(=O)=O (stereo partly drawn) [Compound 76, (2R)—N-hydroxy-2-methyl-3-((5R)-3-(4′-(S-methylsulfonimidoyl)-[1,1′-biphenyl]-4-yl)-4,5-dihydroisoxazol-5-yl)-2-(methylsulfonyl)propanamide] | < 0.5 nM | 2 µg/mL (≈ 4.17 µM) |
